Experimental findings from patent US20240041042A1, “1-(PYRIDYL)-5-AZINYLPYRAZOLE DERIVATIVES, AND THEIR USE FOR CONTROL OF UNDESIRED PLANT GROWTH” (Bayer Aktiengesellschaft, priority 2020, published 2024) are described below.

Structures are written as SMILES.

Common to all, as to format: in vivo
Test [1] relates to Alopecurus myosuroides (ALOMY). Kind of test: Post-emergence herbicidal action against ALOMY. To be noted: visual rating about 3 weeks after treatment vs untreated controls (100% = plants have died, 0% = like control plants). A digest of the protocol:
(§1)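 Post-emergence greenhouse spray, one-leaf stage, 600 l/ha water plus 0.5% additive; WP or EC formulations; application rates 320 g/ha or lower. Visual % damage vs untreated controls at ~3 weeks.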

Test [2] relates to Amaranthus retroflexus (AMARE). Kind of test: Pre-emergence herbicidal action against AMARE. The note with it: visual scoring after about 3 weeks vs untreated controls. A digest of the protocol: (§2)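 Application rates ran to 320 g/ha or lower, with several dosages tested on the same weeds. The compound, as wettable powder or emulsion concentrate, is sprayed pre-emergence onto soil over sown seeds; greenhouse growth follows, and effect is rated visually after roughly 3 weeks.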

Test [3] relates to Setaria viridis (SETVI). Kind of test: Pre-emergence herbicidal action against SETVI. A digest of the protocol:
as §2

Test [4] relates to Pharbitis purpurea (PHBPU). Kind of test: Post-emergence herbicidal action against PHBPU. In outline:
as §1

The subject of test [5] is Amaranthus retroflexus (AMARE). Kind of test: Post-emergence herbicidal action against AMARE. A digest of the protocol: as §1
Test [6] deals with Echinochloa crus-galli (ECHCG). Kind of test: Pre-emergence herbicidal action against ECHCG. A digest of the protocol:
as §2

In test [7] the test system is Matricaria inodora (MATIN). Kind of test: Pre-emergence herbicidal action against MATIN. A digest of the protocol:
as §2

For test [8], the system named is Viola tricolor (VIOTR). Kind of test: Post-emergence herbicidal action against VIOTR. A digest of the protocol:
as §1

The test system of test [9] is Echinochloa crus-galli (ECHCG). Kind of test: Post-emergence herbicidal action against ECHCG. In outline: as §1
Test [10] has as its system Verconica persica (VERPE). Kind of test: Post-emergence herbicidal action against VERPE. In outline: as §1
Where [11] appears, read: 80 g/ha, visual rating about 3 weeks after treatment vs untreated controls (100% = plants have died, 0% = like control plants).
Setting [12] is: 320 g/ha, visual rating about 3 weeks after treatment.

In the case of `COCCOC(=O)COc1nn(-c2ccccn2)c(-c2ccc(F)nc2)c1Br` [Example I-96], the “Post-emergence action against ALOMY in %” value in test [1] (80 g/ha) and in test [1] (320 g/ha) was 90% throughout. Further, the figures for the “Pre-emergence action against AMARE in %” value in [2] (80 g/ha) and in test [2] (320 g/ha) were 90% and 100%, respectively. For the same compound, the “Pre-emergence action against SETVI in %” value in test [3] (dosage 80 g/ha) and in test [3] (dosage 320 g/ha) was 100% in each case. Besides, the “Post-emergence action against PHBPU in %” value in test [4] (dosage 80 g/ha) and in [4] (dosage 320 g/ha) was 90% throughout. Further, the “Post-emergence action against AMARE in %” value in [5] (setting [11]) and in [5] (setting [12]) was 80% each time. Besides, the “Pre-emergence action against ECHCG in %” value worked out at 80% in test [6] (dosage 80 g/ha) and 100% in test [6] (dosage 320 g/ha). In test [7] (dosage 320 g/ha), the “Pre-emergence action against MATIN in %” value is listed as 100%. Also, the “Post-emergence action against VIOTR in %” value in test [8] (80 g/ha) and in test [8] (320 g/ha) was 90% each time. The “Post-emergence action against ECHCG in %” value in test [9] (dosage 80 g/ha) and in test [9] (dosage 320 g/ha) was 90% each time. Moreover, the “Post-emergence action against VERPE in %” value came out at 90% in test [10] (320 g/ha, VERPE) and 80% in test [10] (dosage 80 g/ha).
Consider `COC(=O)C(C)COC(=O)C(C)Oc1nn(-c2ccccn2)c(-c2ccc(F)nc2)c1Cl` (stereo not drawn) [Example I-291], for which the “Post-emergence action against ALOMY in %” value in test [1] (80 g/ha) and in test [1] (320 g/ha) was 80% throughout. Moreover, the “Pre-emergence action against AMARE in %” value is 80% in test [2] (80 g/ha) and 100% in [2] (320 g/ha). Also, the “Pre-emergence action against SETVI in %” value in test [3] (dosage 80 g/ha) and in test [3] (dosage 320 g/ha) was 90% in each case. Also, the entries for the “Post-emergence action against PHBPU in %” value in test [4] (dosage 80 g/ha) and in [4] (dosage 320 g/ha) were 80% and 90%, respectively. Further, the “Post-emergence action against AMARE in %” value in test [5] (setting [11]) and in test [5] (setting [12]) was 80% each time. Besides, the “Pre-emergence action against ECHCG in %” value in test [6] (dosage 320 g/ha) amounted to 90%. Further, the “Pre-emergence action against MATIN in %” value in test [7] (dosage 320 g/ha) was 90%. In addition, the “Post-emergence action against VIOTR in %” value in test [8] (80 g/ha) and in test [8] (320 g/ha) was 80% throughout. In addition, the “Post-emergence action against ECHCG in %” value in test [9] (dosage 80 g/ha) and in test [9] (dosage 320 g/ha) was 80% each time. In [10] (320 g/ha, VERPE), the “Post-emergence action against VERPE in %” value was 80%.
`COC(=O)[C@@H](C)Oc1nn(-c2nc(F)ccc2F)c(-c2cncc(F)c2)c1C1CC1` [Example I-171]: the “Post-emergence action against ALOMY in %” value in test [1] (80 g/ha) and in test [1] (320 g/ha) was 90% in each case. The “Pre-emergence action against AMARE in %” value in test [2] (80 g/ha) and in test [2] (320 g/ha) was 100% throughout. Also, the “Pre-emergence action against SETVI in %” value in test [3] (dosage 80 g/ha) and in test [3] (dosage 320 g/ha) was 100% throughout. Moreover, the “Post-emergence action against PHBPU in %” value in test [4] (dosage 80 g/ha) worked out at 80%; in test [4] (dosage 320 g/ha) it was 90%. In addition, the “Post-emergence action against AMARE in %” value in [5] (setting [11]) and in test [5] (setting [12]) was 80% each time. The “Pre-emergence action against ECHCG in %” value in test [6] (dosage 80 g/ha) and in test [6] (dosage 320 g/ha) was 100% in each case. Also, the “Pre-emergence action against MATIN in %” value in test [7] (dosage 80 g/ha) and in test [7] (dosage 320 g/ha) was 90% throughout. Also, the “Post-emergence action against VIOTR in %” value in test [8] (80 g/ha) and in [8] (320 g/ha) was 90% each time. Further, the “Post-emergence action against ECHCG in %” value in test [9] (dosage 80 g/ha) and in test [9] (dosage 320 g/ha) was 80% in each case. Moreover, the “Post-emergence action against VERPE in %” value is 90% in [10] (320 g/ha, VERPE) and 80% in test [10] (dosage 80 g/ha).
For `COCCOC(=O)COc1nn(-c2ncccc2C)c(-c2cncc(F)c2)c1Br` [Example I-212], the “Post-emergence action against ALOMY in %” value in test [1] (80 g/ha) and in test [1] (320 g/ha) was 90% throughout. Further, the “Pre-emergence action against AMARE in %” value in test [2] (80 g/ha) was found to be 90%; in [2] (320 g/ha), 100%. Further, the “Pre-emergence action against SETVI in %” value in test [3] (dosage 80 g/ha) and in test [3] (dosage 320 g/ha) was 100% in each case. Further, the “Post-emergence action against PHBPU in %” value in test [4] (dosage 80 g/ha) is 90%; in test [4] (dosage 320 g/ha) it was 100%. Besides, the “Post-emergence action against AMARE in %” value in test [5] (setting [12]) was 80%. The “Pre-emergence action against ECHCG in %” value in test [6] (dosage 80 g/ha) and in test [6] (dosage 320 g/ha) was 100% throughout. Further, the “Pre-emergence action against MATIN in %” value in test [7] (dosage 80 g/ha) worked out at 80%; in test [7] (dosage 320 g/ha), 90%. For the same compound, the “Post-emergence action against VIOTR in %” value in [8] (80 g/ha) and in test [8] (320 g/ha) was 80% each time. Also, the “Post-emergence action against ECHCG in %” value in [9] (dosage 80 g/ha) and in [9] (dosage 320 g/ha) was 90% in each case. Further, the “Post-emergence action against VERPE in %” value in test [10] (320 g/ha, VERPE) turned out to be 80%; in test [10] (dosage 80 g/ha) it was 80%.
